In patent US9529005B2, “Modulating bacterial MAM polypeptides in pathogenic disease” (priority 2011, dated 2016):
Values after ≈ are worked out from the molar mass of the structure shown. Where two headings read alike, the source gives them in different places.

Columns and labels:
Test in all cases: Antimicrobial susceptibility testing (MIC), BD Phoenix Automated Microbiology System; as to interpretation of the result: key: R, resistant; I, intermediate; S, susceptible; R*: *As a rule, when ESBL is detected, an interpretation of susceptible or intermediate for penicillins, cephalosporins and aztreonam is reported as resistant
Format in all cases: cell-based
Escherichia coli = conditions: for MIC: Escherichia coli
Klebsiella ssp. = conditions: for MIC: Klebsiella
Acinetobacter baumannii = conditions: for MIC: Acinetobacter baumannii
Pseudomonas aeruginosa = conditions: for MIC: Pseudomonas aeruginosa

For `O=C1CN(/N=C/c2ccc([N+](=O)[O-])o2)C(=O)N1` [Nf., Nitrofurantoin], the “interpretation of the result” value (Escherichia coli; Escherichia coli isolate 1) was “S”, the “interpretation of the result” value (Escherichia coli; Escherichia coli isolate 2) was “S” and the “interpretation of the result” value (Escherichia coli; Escherichia coli isolate 3) was “S”. The “interpretation of the result” value (Escherichia coli; Escherichia coli isolate 4) was “S”, the “interpretation of the result” value (Escherichia coli; Escherichia coli isolate 5) was “S” and the MIC (Escherichia coli; read-out: minimal inhibiting concentration, Escherichia coli isolate 1) was 32 µg/mL (≈ 134 µM). It also gave an MIC (Escherichia coli; read-out: minimal inhibiting concentration, Escherichia coli isolate 2) of no more than 16 µg/mL, an MIC (Escherichia coli; read-out: minimal inhibiting concentration, Escherichia coli isolate 3) of no more than 16 µg/mL and an MIC (Escherichia coli; read-out: minimal inhibiting concentration, Escherichia coli isolate 4) of no more than 16 µg/mL. For the same compound, the MIC (Escherichia coli; read-out: minimal inhibiting concentration, Escherichia coli isolate 5) was no more than 16 µg/mL, the “interpretation of the result” value (Klebsiella ssp.; Klebsiella ssp. isolate 1) was “R” and the “interpretation of the result” value (Klebsiella ssp.; Klebsiella ssp. isolate 2) was “R”. The “interpretation of the result” value (Klebsiella ssp.; Klebsiella ssp. isolate 3) was “R”, the “interpretation of the result” value (Klebsiella ssp.; Klebsiella ssp. isolate 4) was “R” and the “interpretation of the result” value (Klebsiella ssp.; Klebsiella ssp. isolate 5) was “R”. The MIC (Klebsiella ssp.; read-out: minimal inhibiting concentration, Klebsiella ssp. isolate 1) was greater than 64 µg/mL, the MIC (Klebsiella ssp.; read-out: minimal inhibiting concentration, Klebsiella ssp. isolate 2) was greater than 64 µg/mL and the MIC (Klebsiella ssp.; read-out: minimal inhibiting concentration, Klebsiella ssp. isolate 3) was greater than 64 µg/mL. The MIC (Klebsiella ssp.; read-out: minimal inhibiting concentration, Klebsiella ssp. isolate 4) was greater than 64 µg/mL, the MIC (Klebsiella ssp.; read-out: minimal inhibiting concentration, Klebsiella ssp. isolate 5) was greater than 64 µg/mL and the “interpretation of the result” value (Acinetobacter baumannii; Acinetobacter baumannii isolate 1) was “R”. The “interpretation of the result” value (Acinetobacter baumannii; Acinetobacter baumannii isolate 2) was “R”, the “interpretation of the result” value (Acinetobacter baumannii; Acinetobacter baumannii isolate 3) was “R” and the “interpretation of the result” value (Acinetobacter baumannii; Acinetobacter baumannii isolate 4) was “R”. The “interpretation of the result” value (Acinetobacter baumannii; Acinetobacter baumannii isolate 5) was “R”, the MIC (Acinetobacter baumannii; read-out: minimal inhibiting concentration, Acinetobacter baumannii isolate 1) was greater than 64 µg/mL and the MIC (Acinetobacter baumannii; read-out: minimal inhibiting concentration, Acinetobacter baumannii isolate 2) was greater than 64 µg/mL. The MIC (Acinetobacter baumannii; read-out: minimal inhibiting concentration, Acinetobacter baumannii isolate 3) was greater than 64 µg/mL, the MIC (Acinetobacter baumannii; read-out: minimal inhibiting concentration, Acinetobacter baumannii isolate 4) was greater than 64 µg/mL and the MIC (Acinetobacter baumannii; read-out: minimal inhibiting concentration, Acinetobacter baumannii isolate 5) was greater than 64 µg/mL. The “interpretation of the result” value (Pseudomonas aeruginosa; Pseudomonas aeruginosa isolate 1) was “R”, the “interpretation of the result” value (Pseudomonas aeruginosa; Pseudomonas aeruginosa isolate 2) was “R” and the “interpretation of the result” value (Pseudomonas aeruginosa; Pseudomonas aeruginosa isolate 3) was “R”. The “interpretation of the result” value (Pseudomonas aeruginosa; Pseudomonas aeruginosa isolate 4) was “R”, the “interpretation of the result” value (Pseudomonas aeruginosa; Pseudomonas aeruginosa isolate 5) was “R” and the MIC (Pseudomonas aeruginosa; read-out: minimal inhibiting concentration, Pseudomonas aeruginosa isolate 1) was greater than 64 µg/mL. It also gave an MIC (Pseudomonas aeruginosa; read-out: minimal inhibiting concentration, Pseudomonas aeruginosa isolate 2) greater than 64 µg/mL, an MIC (Pseudomonas aeruginosa; read-out: minimal inhibiting concentration, Pseudomonas aeruginosa isolate 3) greater than 64 µg/mL and an MIC (Pseudomonas aeruginosa; read-out: minimal inhibiting concentration, Pseudomonas aeruginosa isolate 4) greater than 64 µg/mL. For the same compound, the MIC (Pseudomonas aeruginosa; read-out: minimal inhibiting concentration, Pseudomonas aeruginosa isolate 5) was greater than 64 µg/mL.
